According to PubChem BioAssay (NCI):
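48-hour exposure; five concentrations; linearly interpolated endpoints. TGI: total growth inhibition.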

Legend:
Assay in all cases: DTP human tumour cell line panel, 48 h
[1] = tested on: NCI-H460 lung
[2] = tested on: SNB-78 CNS
[3] = tested on: LXFL 529 NSCLC
[4] = tested on: DMS 273 small cell lung
[5] = tested on: KM20L2 colon
[6] = tested on: HCC-2998 colon
[7] = tested on: KM12 colon
[8] = tested on: DMS 114 small cell lung
[9] = tested on: XF 498 CNS
[10] = tested on: HOP-18 NSCLC
[11] = tested on: DLD-1 colon
[12] = tested on: RXF 393 renal
[13] = tested on: HS 578T breast
[14] = tested on: NCI/ADR-RES ovarian
[15] = tested on: M19-MEL melanoma

With `COc1ccccc1OCC(COC(=O)Nc1ccccc1)OC(=O)Nc1ccccc1` (configuration not stated) the TGI [1] was greater than 100 µM, the TGI [2] was greater than 100 µM and the TGI [3] was greater than 100 µM. For the same compound, the TGI [4] was greater than 100 µM, the TGI [5] was greater than 100 µM and the TGI [6] was greater than 100 µM. For the same compound, the TGI [7] was greater than 100 µM, the TGI [8] was greater than 100 µM and the TGI [9] was greater than 100 µM. It also gave a TGI [10] greater than 100 µM, a TGI [11] greater than 100 µM and a TGI [12] of 46.8 µM.

In the case of `CC(C(=O)OCc1ccccc1)N(Cc1ccccc1)Cc1ccccc1` (configuration not stated), the TGI [1] is reported as greater than 100 µM, the TGI [2] is reported as greater than 100 µM and the TGI [3] is reported as greater than 100 µM. It also gave a TGI [4] greater than 100 µM, a TGI [5] greater than 100 µM and a TGI [6] greater than 100 µM. It also gave a TGI [7] greater than 100 µM, a TGI [8] greater than 100 µM and a TGI [9] of 77.7 µM. For the same compound, the TGI [11] was greater than 100 µM and the TGI [12] was 88 µM.

`COc1ccc(C#Cn2nnc3ccccc32)cc1` was tested, and the TGI [1] was greater than 100 µM, the TGI [13] was greater than 100 µM and the TGI [6] was 82 µM. For the same compound, the TGI [7] was greater than 100 µM, the TGI [12] was greater than 100 µM and the TGI [14] was greater than 100 µM.

Work on `O=C(CCN1CCOCC1)/C(=C/c1ccccc1)c1ccccc1` yielded a TGI [1] of 23.1 µM, a TGI [2] of 21.3 µM and a TGI [4] of 21.4 µM. The TGI [5] was 15.1 µM, the TGI [6] was 28.3 µM and the TGI [7] was 16.5 µM. For the same compound, the TGI [8] was 12 µM, the TGI [9] was 19.1 µM and the TGI [10] was 30.6 µM. The TGI [11] was 4.04 µM, the TGI [12] was 3.4 µM and the TGI [14] was 17.5 µM. It also gave a TGI [15] of 14.1 µM.

In the case of `CC[C@@]1(O)C(=O)OCc2c1cc1n(c2=O)Cc2c-1nc1ccc(O)cc1c2[Si](C)(C)C(C)(C)C`, the TGI [1] is reported as 0.0263 µM, the TGI [13] is reported as greater than 57.9 µM and the TGI [6] is reported as 0.401 µM. It also gave a TGI [7] of 0.131 µM, a TGI [12] of 0.0378 µM and a TGI [14] of 4.64 µM.

Compound `CSC(SC)=C(C#N)C(=O)Nc1cccc(Cl)c1` has a TGI [1] greater than 100 µM, a TGI [13] greater than 100 µM and a TGI [6] greater than 100 µM. It also gave a TGI [7] greater than 100 µM, a TGI [12] greater than 100 µM and a TGI [14] greater than 100 µM.

With `CC(C)(C)OC(=O)[C@@H]1CCC(=O)N1C1(c2ccccc2)c2ccccc2-c2ccccc21` the TGI [1] was greater than 100 µM, the TGI [13] was greater than 100 µM and the TGI [6] was greater than 100 µM. The TGI [7] was greater than 100 µM, the TGI [12] was 32.2 µM and the TGI [14] was greater than 100 µM.

`Fc1cccc(F)c1C1SCc2nc3cc(Cl)c(Cl)cc3n21` (configuration not stated) was tested, and the TGI [1] was greater than 100 µM, the TGI [13] was greater than 100 µM and the TGI [6] was greater than 100 µM. For the same compound, the TGI [7] was greater than 100 µM, the TGI [12] was greater than 100 µM and the TGI [14] was greater than 100 µM.

`C#CC[C@@]12CC(=O)C[C@@H]1CCC1(C2)OCCO1` (tested in a mixture with another compound) was tested, and the TGI [1] was greater than 100 µM, the TGI [2] was greater than 100 µM and the TGI [4] was greater than 100 µM. It also gave a TGI [5] greater than 100 µM, a TGI [6] greater than 100 µM and a TGI [7] greater than 100 µM. For the same compound, the TGI [9] was greater than 100 µM, the TGI [10] was greater than 100 µM and the TGI [11] was greater than 100 µM. For the same compound, the TGI [12] was greater than 100 µM, the TGI [14] was greater than 100 µM and the TGI [15] was greater than 100 µM.

Work on `Cc1cc(S(=O)(=O)Nc2nc3ncccc3[nH]2)c(S)cc1Cl` yielded a TGI [1] greater than 100 µM, a TGI [13] greater than 100 µM and a TGI [6] greater than 100 µM. For the same compound, the TGI [7] was greater than 100 µM, the TGI [12] was greater than 100 µM and the TGI [14] was greater than 100 µM.

With `NNC(=O)Nc1nc2ccc(NN)cc2[nH]1` the TGI [1] was greater than 100 µM, the TGI [13] was greater than 100 µM and the TGI [6] was 41.4 µM. For the same compound, the TGI [7] was 48.7 µM, the TGI [12] was 97.2 µM and the TGI [14] was greater than 100 µM.

Work on `Cn1cnc(N)c(N=O)c1=O` yielded a TGI [1] greater than 10 µM, a TGI [13] greater than 10 µM and a TGI [6] greater than 10 µM. For the same compound, the TGI [7] was greater than 10 µM, the TGI [12] was greater than 10 µM and the TGI [14] was greater than 10 µM.

`CCOC(=O)c1ccc(Nc2nc3ccccc3nc2-c2cccs2)cc1` gave a TGI [1] greater than 100 µM, a TGI [13] greater than 100 µM and a TGI [6] of 77.7 µM. For the same compound, the TGI [7] was greater than 100 µM, the TGI [12] was greater than 100 µM and the TGI [14] was greater than 100 µM.

In the case of `CCN1C/C(=C\c2ccc(Cl)cc2)c2nc(N)c(C#N)c(-c3ccc(Cl)cc3)c2C1`, the TGI [1] is reported as greater than 100 µM, the TGI [13] is reported as greater than 100 µM and the TGI [6] is reported as greater than 100 µM. It also gave a TGI [7] greater than 100 µM, a TGI [12] greater than 100 µM and a TGI [14] greater than 100 µM.

For `O=C(O)CSc1ccccc1C(=O)O`, the TGI [1] was 38.1 µM, the TGI [13] was greater than 100 µM and the TGI [6] was 46.8 µM. It also gave a TGI [7] greater than 100 µM, a TGI [12] greater than 100 µM and a TGI [14] greater than 100 µM.

Compound `O=C(NNC(=S)Nc1ccccc1)c1nsc2ccccc12` has a TGI [1] greater than 100 µM, a TGI [2] greater than 100 µM and a TGI [3] greater than 100 µM. It also gave a TGI [4] of 69.8 µM, a TGI [5] greater than 100 µM and a TGI [6] greater than 100 µM. For the same compound, the TGI [7] was greater than 100 µM, the TGI [8] was 70 µM and the TGI [10] was 41.4 µM. For the same compound, the TGI [12] was greater than 100 µM and the TGI [15] was greater than 100 µM.

In the case of `COc1cccc(N=N/C(=N/NC(=O)c2ccc(C)cc2)c2ccc(N(CCC#N)CCC#N)cc2OC)c1`, the TGI [1] is reported as greater than 100 µM, the TGI [13] is reported as greater than 100 µM and the TGI [6] is reported as greater than 100 µM. For the same compound, the TGI [7] was greater than 100 µM, the TGI [12] was greater than 100 µM and the TGI [14] was greater than 100 µM.

For `Cc1c(C(=O)c2ccc(N)c3ccccc23)c2ccccc2n1CCN1CCOCC1`, the TGI [1] was greater than 77.1 µM, the TGI [13] was 48.4 µM and the TGI [6] was 59.9 µM. The TGI [7] was 49.1 µM, the TGI [12] was 67.7 µM and the TGI [14] was greater than 91.5 µM.
